From patent publication US9265747B2, “Platinum (IV) complexes for use in dual mode pharmaceutical therapy” (Massachusetts Institute of Technology, priority 2008, dated 2016)
Entries after “also recorded” stand apart in the source; their conditions may differ.

Key:
NTera-2 cells [1] = experiment: Immunofluorescence detection of cytochrome c and AIF; assay type: cell-based, human; conditions: treated NTera-2 cells
Protocol: Detection of cytochrome c and AIF. Normal fibroblast or Ntera-2 cells were seeded on microscope coverslips (1 cm) at a confluence of 1600 cells per slip and incubated overnight at 37° C. in DMEM. The medium was changed and compound 1 was added to a final 500 μM. The cells were incubated for 24 or 48 h at 37° C. Medium was then removed and the cells were incubated with fixing solution for 1 h at room temperature followed by three washes with phosphate buffered saline (PBS, pH 7.4). Cells were then fixed with 4% paraformaldehyde in 0.1 M phosphate buffer (pH 7.4) at room temperature for 1 h, washed twice with PBS. Cells were then permeabilize with 0.1% Triton-X100 in PBS for 30 min, followed by six washes with PBS. Cells were then rinsed with blocking buffer (PBS, 0.1% goat serum, 0.075% glycin). Cells were then incubated for 1 h at 37° C. with the anti-cytochrome c (anti-cytochrome c (Ab-1) Sheep pAb, Calbiochem) antibody or AIF (AIF (H-300), Santa Cruz Biotechnology Inc.) antibody both diluted 1:50 in blocking buffer, washed twice with blocking buffer and incubated at 37° C. with Alexa Fluor 488 donkey anti sheep IgG (Invitrogen) antibody for cytochrome c release and Alexa Fluor 546 goat anti-rabbit IgG (Invitrogen) antibody for AIF (dilution 1:50 in blocking buffer) for 1 h. […]

[2] = tested on: A549, human lung carcinoma; experiment: MTT assay, A549 cells; assay type: cell-based; conditions: 72 hours
Protocol: [The procedure below names another cell line; the source lists this cell line under the same test.] (§1) MTT Assay. Cytotoxic behavior of compound 1, DCA and cis-DDP were evaluated using the MTT assay. Solutions of the platinum complexes were freshly prepared in sterile PBS before use and quantitated by atomic absorption spectroscopy. Cells were seeded on a 96 well plate (1000 cells per well for NTera-2, U2OS, HeLa; 1400 per well for normal fibriblast; 500 per well for 7B, 10B, 175F and 150×2) in 100 μL DMEM media and incubated for 24 hours. The cells were then treated with compound 1, DCA or cis-DDP, separately at varying concentrations and incubated for 72 hours at 37° C. The cells were then treated with 20 μL of 3-(4,5-dimethylthiazol-2-yl)-2,5-diphenyltetrazolium bromide (MTT) (5 mg/mL in PBS) and incubated for 5 h. The medium was removed, the cells were lysed by adding 100 μl, of DMSO, and the absorbance of the purple formazan was recorded at 550 nm using a BioTek Synergy HT multi-detection microplate plate reader. Each well was performed in triplicate in three independent experiments for each cell line.

[3] = tested on: human lung cancer A549 cells and normal human lung fibroblasts MRC-5; experiment: LIVE/DEAD viability assay in co-culture; assay type: cell-based; conditions: co-culture A549 and MRC-5, exposure for 24 h
Protocol: Studies were also conducted on a co-culture of human lung cancer A549 cells and normal human lung fibroblasts MRC-5. […] The assay allowed for the simultaneous determination of live and dead cells in a co-culture by labeling live cells with calcein AM dye, which fluoresces only when cleaved by intracellular esterase enzymes, and ethidium […] (EthD-1), which only enters dead cells with disrupted cell membranes. […] Following mitaplatin or cisplatin exposure for 24 h, cells were stained with calcein AM (green fluorescence) and ethidium homodimer-1 (red fluorescence) to differentiate between live and dead cells, respectively.

[4] = tested on: A2780/CP70, cisplatin-resistant human ovarian carcinoma; experiment: MTT assay, A2780/CP70 cells; assay type: cell-based; conditions: 72 h; for IC50: A2780/CP70 cisplatin resistant cells
Protocol: (§2) A more negative membrane potential might promote translocation of the active, cationic form of cisplatin from the cytoplasm to mitochondria, thus diminishing platination of nuclear DNA. […] Thus, a pair of cisplatin sensitive A2780 and resistant A2780/CP70 ovarian cancer cells were studied (Table 1 and FIG. 10). […] (▴) with (A) cisplatin sensitive A2780 cells and (B) cisplatin resistant A2780/CP70 cells, after 72 h as determined by the MTT assay. The controls were cisplatin and c,c,t-[Pt(NH3)2Cl2(O2CCH3)2]. […] Results for the A2780/CP70 cells indicate that DCA plays a role, in this embodiment, in making cisplatin-resistant cells susceptible towards mitaplatin treatment.
as §1

HeLa = experiment: Annexin-V flow cytometry, HeLa cells; assay type: cell-based, human; conditions: 10 and 20 μM, 72 h
Protocol: (§3) In order to quantify mitaplatin-induced apoptosis in cancer cells, an Annexin-V was performed and analyzed using flow cytometry. With this analysis, the percentage of apoptotic cells found was determined at 72 h after exposure of mitaplatin and cisplatin.

A549 = experiment: Annexin-V flow cytometry, A549 cells; assay type: cell-based, human; conditions: 10 and 20 μM, 72 h
Protocol: as §3

[5] = tested on: MRC-5, normal lung fibroblast; experiment: MTT assay, MRC-5 normal cells; assay type: cell-based, human
Protocol: as §1

U2OS = experiment: Annexin-V flow cytometry, U2OS cells; assay type: cell-based, human; conditions: 10 and 20 μM, 72 h
Protocol: as §3

[6] = tested on: NTera-2, human testicular cancer; experiment: MTT assay, NTera-2 cells; assay type: cell-based
Protocol: (§4) Cell Line and Cell Culture. Healthy normal fibroblast GM61869, human cancer NTera-2, human cervical cancer HeLa, human osteosarcoma cell line U2OS were obtained from the ATCC. Cells were incubated at 37° C. in 5% CO2 and grown in DMEM medium supplemented with 10% fetal bovine serum and 1% penicillin/streptomycin. Cells were passed every 3 to 4 days and restarted from the frozen stock upon reaching pass number 20.
as §1

[7] = tested on: human cancer NTera-2 cells; experiment: JC-1 mitochondrial membrane potential assay, NTera-2 cells; assay type: cell-based; conditions: 100 μM, 4 h and 48 h
From the text: (§5) The following describes a mitochondrial membrane potential assay using compound 1. JC-1 Assay: Mitochondrial attack is associated with a drop in mitochondrial transmembrane potential (Δψm). For this reason Δψm, is an important parameter of mitochondrial function and has been used as an indicator for mitochondrial death. Variation in Δψm can be studied by evaluating the changes in fluorescence intensity of cells stained with lipophilic cationic dye, 5,5′,6,6′-tetrachloro-1,1′,3,3′-tetraethylbenzimidazolylcarbocyanine iodide (JC-1). It can selectively enter mitochondria and reversibly change color from green to red as the membrane potential increases.
(§6) The negative charge established by the mitochondrial membrane potential allows the lipophilic dye, bearing a delocalized positive charge, to enter the mitochondria where it accumulates. When the critical concentration is exceeded, J-aggregates form, which becomes red. In apoptotic cells, the mitochondrial membrane potential collapses, and the JC-1 can not accumulate within the mitochondria. In these cells, JC-1 remains in the cytoplasm in a green fluorescent monomeric form. Apoptotic cells, showing primarily green fluorescence, are easily differentiated from the healthy cells which show mainly red fluorescence.
(§7) JC-1 Assay. Normal and NTera-2 cells were cultured on cover slips to a density of 1×10^6 cells/mL and incubated overnight at 37° C. […]

[8] = tested on: HeLa, human cervical cancer; experiment: MTT assay, HeLa cells; assay type: cell-based; conditions: 72 hours
Protocol: as §4, §1

[9] = tested on: normal fibroblasts and cancerous NTera-2 cells; experiment: Co-culture of normal fibroblasts and cancerous NTera-2 cells; assay type: cell-based, human
From the text: Cisplatin kills both NTera-2 and normal fibroblast cells

[10] = tested on: MCF-7, human breast adenocarcinoma; experiment: MTT assay, MCF-7 cells; assay type: cell-based
Protocol: [The procedure below names another cell line; the source lists this cell line under the same test.] as §1

[11] = Cyclic voltammetry, Pt(IV)/Pt(II) couple; assay type: physicochemical
From the text: Materials and Measurements. The complexes cis-[Pt(NH3)2Cl2], and c, c, t-[Pt(NH3)2Cl2(OH)2] were synthesized as previously described. Distilled water was purified by passage through a Millipore Milli-Q Biocel water purification system (18.2 MΩ) with a 0.22 μm filter. For the detection of cisplatin 1,2-d(GpG) intrastrand adduct, a monoclonal adduct specific antibody R-C18 was used which was a gift from Anti-cytochrome c (Ab-1) sheep polyclonal antibody was procured from Calbiochem. For AIF detection, rabbit polyclonal IgG antibody was used from Santa Cruz Biotechnology, Inc. Alexa Fluor® 488 labeled secondary antibody donkey anti-(sheep IgG) was obtained from Invitrogen for cytochrome c detection. For AIF detection, Alexa Fluor® 546 labeled secondary antibody goat anti-(rabbit IgG) was purchased from Invitrogen. […] JC-1 (5,5′, 6,6′-tetrachloro-1,1′,3,3′ tetraethylbenzimidazolylcarbocyanine iodide) was obtained from Cayman Chemicals. ^1H NMR and ^195Pt NMR spectra were recorded on a Bruker AVANCE-400 NMR spectrometer with a Spectro Spin superconducting magnet in the Massachusetts Institute of Technology Department of Chemistry Instrumentation Facility (MIT DCIF). […] Fluorescence imaging studies were performed with an Axiovert 200M inverted epifluorescence microscope (Zeiss, Thornwood, N.Y.) equipped with an EM-CCD digital camera C9100 (Hamamatsu, Japan). […]

[12] = tested on: healthy normal fibroblast cells; experiment: TMRM mitochondrial membrane potential assay, normal fibroblasts; assay type: cell-based; conditions: listed as compound 1
Protocol: (§8) TMRM Assay. Analysis of mitochondrial membrane potential (Δψm) was carried out by using tetramethyl rhodamine methyl ester (TMRM). A similar procedure as mentioned above for the JC-1 assay was followed. Before fixing the cells, they were treated with 2 μM of TMRM for 30 min at 37° C.

[13] = tested on: healthy normal fibroblast cells; experiment: JC-1 mitochondrial membrane potential assay, normal fibroblasts; assay type: cell-based; conditions: 100 μM, 4 h and 48 h
From the text: as §5, §6, §7

U2OS, human osteosarcoma = experiment: MTT assay, U2OS cells; assay type: cell-based; conditions: 72 hours
Protocol: as §4, §1

NTera-2 cells [14] = experiment: TMRM mitochondrial membrane potential assay, NTera-2 cells; assay type: cell-based, human; conditions: listed as compound 1
Protocol: as §8

normal MRC-5 cells = experiment: Annexin-V flow cytometry, normal MRC-5 cells; assay type: cell-based, human; conditions: 72 h, cisplatin at 10 μM
Protocol: as §3

[15] = tested on: A2780, human ovarian carcinoma; experiment: MTT assay, A2780 cells; assay type: cell-based; conditions: A2780 cisplatin sensitive cells, 72 h
Protocol: as §2, §1

[16] = tested on: NTera, HeLa, U2OS, A549, and MCF-7 cancer cells as well as MRC-5 normal fibroblasts; experiment: MTT assay, control experiments in all cells; assay type: cell-based, human
Protocol: The ability of the compound 1 to promote cell death was determined using the MTT assay and the results were compared against those for cisplatin or -2 DCA using NTera, HeLa, U2OS, A549, and MCF-7 cancer cells as well as MRC-5 normal fibroblasts (FIG. 3). […] This enhanced potency of mitaplatin is consistent with the expected dual killing mechanism.
as §1

Compound | IC50 [2] [µM] | IC50 [4] [µM] | apoptosis (Annexin-V) (HeLa) | apoptosis (Annexin-V) (A549) | IC50 ([5]; 72 hours) [µM] | apoptosis (Annexin-V) (U2OS) | IC50 ([6]; 72 hours) [µM] | IC50 [8] [µM] | cell killing in co-culture [9] | IC50 ([10]; 72 hours) [µM] | IC50 (U2OS, human osteosarcoma) [µM] | apoptosis (Annexin-V) (normal MRC-5 cells) | IC50 [15] [µM] | further results
[NH2][Pt]([NH2])([Cl])([Cl])([O]C(=O)C(Cl)Cl)[O]C(=O)C(Cl)Cl [Mitaplatin, c,c,t-[Pt(NH3)2Cl2(O2CCHCl2)2]] | 14 | 3.34 | Apoptosis was detected | Apoptosis was detected | 18.3 | Apoptosis was detected | 0.051 | 2 | selectively kills the cancer cells | 18 | 6.4 | did not show any detectable apoptosis | 1.1 | apoptosis inducing factor AIF location (NTera-2 cells [1]): located in the nucleus; cytochrome c distribution (NTera-2 cells [1]): diffusely distributed in the cytoplasm; cell death in co-culture, LIVE/DEAD staining [3]: selectively induced cell death in human cancer A549 cells, but not in normal MRC-5 cells; effect on mitochondria (JC-1 fluorescence) [7]: attacks the mitochondria; reduction potential, Pt(IV)/Pt(II) couple ([11]; pH 6.0, 25° C.): −0.152 V vs Ag/AgCl; reduction potential, Pt(IV)/Pt(II) couple ([11]; pH 7.4, irreversible cyclic voltammetric response, 25° C.): ~−0.173 V vs Ag/AgCl; mitochondrial membrane potential (Δψm), TMRM [12]: had no effect; also recorded: does not change the Δψm; effect on mitochondria (JC-1 fluorescence) [13]: had no effect; mitochondrial membrane potential (Δψm), TMRM (NTera-2 cells [14]): significantly depolarizes; also recorded: reverses the hyperpolarization
cis-[Pt(NH3)2Cl2] [Cisplatin] | 12 | 6 | Apoptosis was detected | Apoptosis was detected | 9.5 | Apoptosis was detected | 0.043 | 1.2 | kills both the normal and cancer cells | 13 | 3.9 | showed apoptosis | 0.56 | IC50 ([6]; 72 hours, listed as cis-DDP): 0.05 µM
O=C(O)C(Cl)Cl [DCA, Dichloroacetic acid] | – | – | – | – | – | – | – | – | – | – | – | – | – | IC50 ([2]; Homo sapiens): > 200 µM; IC50 ([4]; Homo sapiens): > 120 µM; IC50 ([5]; Homo sapiens, MRC5, 72 hours): > 100 µM; IC50 ([6]; Homo sapiens, NTERA2, 72 hours): > 0.4 µM; IC50 ([8]; Homo sapiens): > 8 µM; IC50 ([10]; Homo sapiens, MCF7, 72 hours): > 100 µM; IC50 (U2OS, human osteosarcoma; Homo sapiens): > 100 µM; IC50 ([15]; Homo sapiens): > 120 µM
CC(=O)[O][Pt]([NH2])([NH2])([Cl])([Cl])[O]C(C)=O [c,c,t-[Pt(NH3)2Cl2(O2CCH3)2]] | – | – | – | – | – | – | – | – | – | – | – | – | – | resistance of A2780/CP70 cells to the compound ([4]; A2780/CP70 cells): much more resistant; activity relative to mitaplatin [16]: less active by several fold than mitaplatin
